Measured values taken from patent US8263601B2, “Deuterium substituted xanthine derivatives” (CoNCERT Pharmaceuticals, Inc., priority 2009, dated 2012).
Like-named read-outs stand apart in the source and are kept apart here.

What was measured:
[1] = Pharmacokinetic study of 435(S) and other representative compounds in chimps after oral dosing (Example 40); type: in vivo; settings: species named in label measured in plasma
Protocol: 435(S) and representative compounds 121(S), 137(S), 421(S) and 437(S) were separately dissolved in warm (65° C.) water at a concentration [[of 10 mg/mL]]. The same protocol described for Example 39 was then followed for each representative compound.

[2] = Pharmacokinetic study of pentoxifylline and Compound 435(S) in chimps after oral dosing (Example 39); type: in vivo; settings: oral gavage 65 mg each of pentoxifylline and 435(S) in water, species named in label measured in plasma
Protocol: Pentoxifylline and Compound 435(S) were tested according to a protocol similar to the Oral Dosing protocol followed in Example 38, except that (a) the compounds were separately dissolved in water rather than saline; (b) the mixture of the two compounds was not sterile filtered; and (c) oral administration was achieved by oral gavage of a single 65 mg dose of each compound (13 mL total dosing solution).

[3] = Pharmacokinetic study of pentoxifylline and Compound 435(S) in chimps after oral dosing (Example 38); type: in vivo; settings: in vivo, po, 75 mg
Protocol: Pentoxifylline and Compound 435(S) were separately dissolved in warm (65° C.) saline at a concentration at 10 mg/mL. A 1:1 mixture of the two compounds was then prepared containing a final concentration of 5 mg/mL of each compound and the mixture was then sterile filtered through a 0.2-μm filter.
Two chimps (one male and one female) were used in each of the oral and intravenous studies. Animals were fasted overnight prior to administration of compounds. All animals were sedated with ketamine (approximately 10 mg/kg) and/or telazol (approximately 5 mg/kg) prior to dosing. Intravenous administration was achieved by IV infusion of 75 mg of each compound (15 mL total dosing solution) over 10 minutes. Oral administration was achieved by oral gavage of a single 75 mg dose of each compound (15 mL total dosing solution). Blood samples (6 mL) were collected from the dosed chimps at various times prior to and after dosing. For intravenous administrations blood samples were collected at 0 min (preinfusion), 5 min, 9.5 min (immediately before the end of the infusion), then 6, 15, 30 and 45 min, and 1, 2, 4, 6, 8, 10 and 12 hr after the infusion is stopped. For oral administrations, blood samples were collected at 0 min (predose), 15 and 30 min, and 1, 1.5, 2, 4, 6, 8, 10 and 12 hr postdose.
Blood samples were placed in tubes containing sodium heparin, mixed and stored on ice until centrifuged. Within 30 minutes of collection, plasma was isolated by centrifuging the blood samples and removing an aliquot (200 μL) of the resulting plasma. Each 200-μL aliquot of plasma was mixed with 400 μL acetonitrile and stored at −70° C. until further analysis by LC-MS/MS using an Applied Bio-systems API 4000 mass spectrometer.
The analysis of all samples by LC-MS/MS was performed as described above for the rat plasma samples in Example 37.

[4] = Pharmacokinetic study in rats of (S)-M1 and Compound 435(S) after intravenous dosing (Example 37); type: in vivo, male Sprague-Dawley rats; settings: intravenous bolus single 5 mg/kg dose of 1:1 combination of (S)-M1 and 435(S), species named in label measured in plasma
Protocol: (§1) (S)-M1 and Compound 435(S) (a deuterated form of (S)-M1) were separately dissolved in saline at a concentration of 10 mg/mL. A 1:1 mixture of the two compounds was then prepared containing a final concentration of 5 mg/mL of each compound, which was used for intravenous administration. For oral administration the mixture was further diluted in saline to a final concentration of 1 mg/mL for each compound.
(§2) Three male Sprague-Dawley rats were used in each of the oral and intravenous studies. Animals were fasted overnight prior to administration of compounds. Intravenous administration was achieved by bolus injection of a single 5 mg/kg dose of the 1:1 combination into the cannulated jugular vein of the rats. Cannulation was achieved the day prior to dosing on rats that had been placed under anesthesia using ketamine (IM 30 mg/kg). Oral administration was achieved by oral gavage of a single 5 mg/kg dose. Blood samples (250 μL) were collected from the dosed rats at various times post-dosing (2 min, 5 min, 10 min, 20 min, 30 min, 1 hr, 2 hr, 3 hr, 4 hr, 5 hr, 6 hr) by retro-orbital sampling of the rats temporarily anesthetized with isoflurane. Blood samples were placed in tubes containing K2-EDTA and stored on ice until centrifuged. Within 30 minutes of collection, plasma was isolated by centrifugation. A 100-μL aliquot was removed, mixed with 200 μL of acetonitrile and stored at −20° C. until further analysis by LC-MS/MS using an Applied Bio-systems API 4000 mass spectrometer.
(§3) Samples were analyzed for the presence of the administered compound, the corresponding ketone (pentoxifylline and Compound 409) and the corresponding M5 metabolite. Samples (10 μL) were injected into a Zorbax SB-C8 (Rapid Resolution) column (2.1×30 mm, 3.5 μm). The initial mobile phase condition was 100% A (10 mM ammonium acetate in water) and 0% B (methanol) with a flow rate at 0.5 mL/min. Mobile phase B was allowed to reach 55% in 3 minutes and from 55% to 90% in 1 minute before ramping back to 0% in another minute. The overall run time was 5 minutes. For pentoxifylline and its M1 and M5 metabolites, the precursor/product ion pairs were set at m/z 281/193 (M1), m/z 279/181 (pentoxifylline), and m/z 267/221 (M5).
(§4) For Compound 435(S) and Compound 409 more than one ion pair was set up for to detect species that arose from loss of deuterium. […] This loss of deuterium appears to occur both in vivo and ex vivo by an unknown mechanism. The addition of acetonitrile to serum samples was used to stop any additional ex vivo deuterium loss prior to analysis. Typically, no more than 2 deuterium atoms were replaced by hydrogen. For Compound 435(S), there is a deuterium at the methinyl position which was lost upon oxidation to the keto-compound 409. Reduction of 409 to an M1 metabolite introduced a proton at the methinyl position. When serum from animals dosed with 435(S) were analyzed to quantitate administered compound and metabolites, compound species were included with one and two less side chain deuteriums in the total amounts (referred to hereinafter as the “−1D” and the “−2D” species). Thus, for Compound 435(S) and Compound 409 separate ion pairs were set up to detect the compound and its corresponding −1D and −2D species. For Compound 435(S) three ion pairs were detected: m/z 291/197, 290/197, and […]. For Compound 409 ion pairs of m/z 288/186, 287/186 and 286/186 were monitored. Inclusion of −1D and −2D species in the measurements of Compound 409 and Compound 435(S) more accurately quantitates the total active species and is reasonable based on what is known about the metabolism and activities of pentoxifylline and its M-1 metabolites. Increased plasma exposure to Compound 409 or any M-1 metabolites of 409 would be desirable. This includes the −1D and −2D species.
(§5) [drawing 78] which has no deuterium on its acid side chain, only one ion pair was used at m/z 271/225. The internal standard for the analysis was indiplon.

[5] = Pharmacokinetic study in rats of (S)-M1 and Compound 435(S) after oral dosing (Example 37); type: in vivo, male Sprague-Dawley rats; settings: oral gavage single 5 mg/kg dose, 1:1 mixture of (S)-M1 and 435(S), species named in label measured in plasma, −1D and −2D species included
Protocol: as §1, §2, §3, §4, §5

[6] = in vivo; set-up: species or system male beagle dogs; settings: dog, po, 2.5 mg/kg
Protocol: Metabolism of the title compounds were studied following oral administration to male beagle dogs. Blood samples were removed from dosed dogs at various time points and plasma isolated therefrom. The plasma samples were used for the determination of plasma drug levels by LC-MS/MS (liquid chromatography with tandem mass spectrometry) for estimating pharmacokinetic parameters.
Compound 409 and pentoxifylline were dissolved separately in saline to a concentration of 4 mg/mL. A 1:1 (v/v) mixture of the two solutions was prepared to yield a solution having a final concentration of 2 mg/mL of both Compound 409 and pentoxifylline.
Two male beagle dogs were fasted overnight and then orally dosed via gavage with 2.5 mg/kg of Compound 409 and pentoxifylline using the mixture described above. Blood samples (1.5-2 mL) were collected via the femoral vein at 0 min (pre-dose), 15 min, 30 min, 45 min, 1 hr, 1.5 hr, 2 hr, 3 hr, 4 hr, 6 hr, 8 hr, 10 hr, 12 hr, 16 hr and 24 hr post-dose. Blood was stored on ice prior to centrifugation to obtain plasma samples. Centrifugation took place within 1 hour of blood collection to harvest plasma (maximum volume). The plasma was decanted immediately and frozen/stored at −70° C. until analysis.

[7] = female, plasma, po, 65 mg, Table 17 iv): female chimp, 435(S) and 437(S), read-out: AUC0-12 Female
[8] = female, plasma, po, 65 mg, Table 17 iii): female chimp, 435(S) and 421(S), read-out: AUC0-12 Female
[9] = male, plasma, po, 65 mg, Table 17 iii): male chimp, 435(S) and 421(S), read-out: AUC0-12 Male

Cn1cnc2c1c(=O)n(CCCC(=O)O)c(=O)n2C [Compound M5, reference compound]
AUC0-12 Female ([1]; Table 17 i): female chimp, 435(S) and 121(S)): 0.653 µg·h/mL
AUC0-12 Male ([1]; Table 17 i): male chimp, 435(S) and 121(S)): 0.63 µg·h/mL
AUC0-12 Female ([1]; Table 17 ii): female chimp, 435(S) and 137(S)): 0.635 µg·h/mL
AUC0-12 Male ([1]; Table 17 ii): male chimp, 435(S) and 137(S)): 0.539 µg·h/mL
AUC0-12 Female ([2]; female chimp): 0.811 µg·h/mL
AUC0-12 Male ([2]; male chimp): 0.817 µg·h/mL
AUC0-∞ Female [3]: 1.868 µg·h/mL
AUC0-∞ Male [3]: 1.456 µg·h/mL
AUC0-∞ [4]: 1.795 ± 0.521 µg·h/mL
AUC0-∞ [5]: 2.985 ± 0.601 µg·h/mL

[2H]C([2H])([2H])[C@]([2H])(O)C([2H])([2H])CCCn1c(=O)c2c(ncn2C)n(C)c1=O [Compound 137(S), (S)-1-(4,4,5,6,6,6-d6-5-Hydroxyhexyl)-3,7-dimethyl-1H-purine-2,6(3H,7H)-dione]
AUC(0-t) ([1]; female, plasma, po, 65 mg, Table 17 ii): female chimp, 435(S) and 137(S), read-out: AUC0-12 Female): 0.163 µg·h/mL
AUC(0-t) ([1]; male, plasma, po, 65 mg, Table 17 ii): male chimp, 435(S) and 137(S), read-out: AUC0-12 Male): 0.063 µg·h/mL

[2H]c1nc2c(c(=O)n(CCCC([2H])([2H])[C@@]([2H])(O)C([2H])([2H])[2H])c(=O)n2C)n1C [Compound 437(S), (S)-8-d1-1-(4,4,5,6,6,6-d6-5-Hydroxyhexyl)-3,7-dimethyl-1H-purine-2,6(3H,7H)-dione]
AUC(0-t) [1, 7]: 1.18 µg·h/mL
AUC(0-t) ([1]; male, plasma, po, 65 mg, Table 17 iv): male chimp, 435(S) and 437(S), read-out: AUC0-12 Male): 0.757 µg·h/mL

[2H]c1nc2c(c(=O)n(CCCC([2H])([2H])[C@@H](O)C([2H])([2H])[2H])c(=O)n2C)n1C [Compound 421(S), (S)-1-(4,4,6,6,6-d5-5-hydroxyhexyl)-3,7-dimethyl-8-d-1H-purine-2,6(3H,7H)-dione]
AUC(0-t) [1, 8]: 0.634 µg·h/mL
AUC(0-t) [1, 9]: 0.743 µg·h/mL

pentoxifylline [reference compound]
Ave. AUC [6]: 0.448 µg·h/mL
Ave. Cmax [6]: 0.784 µg/mL

[2H]c1nc2c(c(=O)n(CCCC(=O)O)c(=O)n2C)n1C [Deuterated M5 (M5b)]
AUC(0-t) [1, 8]: 0.35 µg·h/mL
AUC(0-t) [1, 7]: 0.416 µg·h/mL
AUC(0-t) [1, 9]: 0.447 µg·h/mL

[2H]C([2H])([2H])[C@H](O)C([2H])([2H])CCCn1c(=O)c2c(ncn2C)n(C)c1=O [Compound 121(S), S-1-(4,4,6,6,6-d5-5-Hydroxyhexyl)-3,7-dimethyl-1H-purine-2,6(3H,7H)-dione]
AUC(0-t) ([1]; female, plasma, po, 65 mg, Table 17 i): female chimp, 435(S) and 121(S), read-out: AUC0-12 Female): 0.105 µg·h/mL
AUC(0-t) ([1]; male, plasma, po, 65 mg, Table 17 i): male chimp, 435(S) and 121(S), read-out: AUC0-12 Male): 0.304 µg·h/mL
